According to patent US7030242B2, “Selective inhibition of aggrecanase in osteoarthritis treatment” (Pfizer Inc, priority 1999, dated 2006):
Read-outs that look alike come from different tables or passages of the source.

Columns and labels:
[1] = biological target: T1, Human recombinant collagenase-1 (Homo sapiens, UniProt P03956); test: Inhibition of human collagenase-1 (recombinant collagenase-1 assay); type: biochemical; details: Table 2, read-out: MMP-1 (IC50 class)
T1 sequence (P03956 100-469): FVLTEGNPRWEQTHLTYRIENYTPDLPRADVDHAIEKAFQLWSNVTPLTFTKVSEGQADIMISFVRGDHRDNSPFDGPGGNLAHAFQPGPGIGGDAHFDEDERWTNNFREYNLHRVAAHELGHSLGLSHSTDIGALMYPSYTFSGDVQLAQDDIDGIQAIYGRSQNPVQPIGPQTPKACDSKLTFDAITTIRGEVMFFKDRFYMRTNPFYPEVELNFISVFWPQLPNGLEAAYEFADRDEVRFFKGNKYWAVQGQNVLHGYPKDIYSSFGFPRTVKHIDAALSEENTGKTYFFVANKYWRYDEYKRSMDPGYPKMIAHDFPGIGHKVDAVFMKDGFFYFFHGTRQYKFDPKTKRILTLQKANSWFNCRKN
Method: Inhibition of Human Collagenase-1 (Recombinant Collagenase-1 Assay)
This assay is used in the invention to measure the potency (IC50s) of compounds for collagenase-1.
Human recombinant collagenase-1 is activated with trypsin. The amount of trypsin is optimized for each lot of collagenase-1, but a typical reaction uses the following ratio: 5 mg trypsin per 100 mg of collagenase.
Stock solutions (10 mM) of inhibitors are made up in dimethylsulfoxide and then diluted using the following scheme: • 10 mM------>120 μM------>12 μM------>1.2 μM------>0.12 μM
Twenty-five microliters of each concentration is then added in triplicate to appropriate wells of a 96 well microfluor plate. The final concentration of inhibitor will be a 1:4 dilution after addition of enzyme and substrate. Positive controls (enzyme, no inhibitor) are set up in wells D7–D12 and negative controls (no enzyme, no inhibitors) are set in wells D1–D6.
Collagenase-1 is diluted to 240 ng/ml and […] is then added to appropriate wells of the microfluor plate. Final concentration of collagenase in the assay is 60 ng/ml.
Substrate (DNP-Pro-Cha-Gly-Cys(Me)-His-Ala-Lys(NMA)-NH2) is made as a 5 mM stock in dimethylsulfoxide and then diluted to 20 μM in assay buffer. The assay is initiated by the addition of […] substrate per well of the microfluor plate to give a final concentration of 10 μM.
Fluorescence readings (360 nm excitation, 460 nm emission) are taken at time 0 and then at about 20 minute intervals. The assay is conducted at a temperature of about 20 to about 25° C., preferably about 23° C. with a typical assay time of about 3 hours.
Fluorescence versus time is then plotted for both the blank and collagenase containing samples (data from triplicate determinations is averaged). A time point that provides a good signal (at least five fold over the blank) and that is on a linear part of the curve (usually around 120 minutes) is chosen to determine IC50 values. The zero time is used as a blank for each compound at each concentration and these values are subtracted from the 120 minute data. Data is plotted as inhibitor concentration versus % control (inhibitor fluorescence divided by fluorescence of collagenase alone ×100).

[2] = biological target: Human recombinant collagenase-3 (Homo sapiens, UniProt P45452); test: Inhibition of human collagenase-3 (recombinant collagenase-3 assay); type: biochemical
Method: Inhibition of Human Collagenase-3 (Recombinant Collagenase-3 Assay)
This assay is used in the invention to measure the potency (IC50s) of compounds for collagenase-3.
Human recombinant collagenase-3 is activated with 2 mM APMA (p-aminophenyl mercuric acetate) for about 2.0 hours, at about 37° C. and is diluted to about 240 ng/ml in assay buffer (50 mM Tris, pH 7.5, 200 mM sodium chloride, 5 mM calcium chloride, […], 0.02% BRIJ-35). Twenty-five micro-liters of diluted enzyme is added per well of a 96 well microfluor plate.
The final concentrations in the assay are 30 μM, 3 μM, 0.3 μM, and 0.03 μM.
Fluorescence readings (360 nm excitation; 450 nm emission) are taken at time 0 and about every 5 minutes for about 1 hour.
Positive controls and negative controls are set up in triplicate as outlined in the collagenase-1 assay. IC50's are determined as per inhibition of human collagenase (collagenase-1).

[3] = test system: aggrecanase; test: Aggrecanase chondrocyte assay (35S-proteoglycan release, IL-1 stimulated); type: cell-based, porcine
Method: Aggrecanase Chondrocyte Assay
This assay is used in the invention to measure the potency (IC50s) of compounds for aggrecanase.
Primary porcine chondrocytes from articular joint cartilage are isolated by sequential trypsin and collagenase digestion followed by collagenase digestion overnight and are plated at 2×10^5 cells per well into 48 well plates with 5 μCi/ml ^35S (1000 Ci/mmol) sulphur in type I collagen coated plates. Cells are allowed to incorporate label into their proteoglycan matrix (approximately 1 week) at 37° C., under an atmosphere of 5% CO2.
The night before initiating the assay, chondrocyte monolayers are washed two times in DMEM/1% PSF/G and then allowed to incubate in fresh DMEM/1% FBS overnight.
The following morning chondrocytes are washed once in DMEM/1% PSF/G. The final wash is allowed to sit on the plates in the incubator while making dilutions. Media and dilutions can be made as described in the Table I below.
Plates are labeled and only the interior 24 wells of the plate are used. On one of the plates, several columns are designated as IL-1 (no drug) and Control (no IL-1, no drug). These control columns are periodically counted to monitor 35S-proteoglycan release. Control and IL-1 media are added to wells (450 μl) followed by compound (50 μl) so as to initiate the assay. Plates are incubated at 37° C., with a 5% CO2 atmosphere.
At 40–50% release (when CPM from IL-1 media is 4–5 times control media) as assessed by liquid scintillation counting (LSC) of media samples, the assay is terminated (about 9 to about 12 hours). Media is removed from all wells and placed in scintillation tubes. Scintillate is added and radioactive counts are acquired (LSC). To solubilize cell layers, 500 μL of papain digestion buffer (0.2 M Tris, pH 7.0, 5 mM EDTA, 5 mM DTT, and 1 mg/ml papain) is added to each well. Plates with digestion solution are incubated at 60° C. overnight. The cell layer is removed from the plates the next day and placed in scintillation tubes. Scintillate is then added, and samples counted (LSC).
The percent of released counts from the total present in each well is determined. Averages of the triplicates are made with control background subtracted from each well.

[4] = biological target: T2, TACE (Homo sapiens, UniProt P78536); test: Inhibition of soluble TNF-α production (TACE whole blood assay); type: cell-based; details: Table 2, read-out: TACE (IC50 class)
T2 construct: Human mononuclear cells are isolated from anti-coagulated human blood; endogenous in cells; host or cells: human peripheral blood mononuclear cells, LPS stimulated
T2 sequence (P78536 215-824): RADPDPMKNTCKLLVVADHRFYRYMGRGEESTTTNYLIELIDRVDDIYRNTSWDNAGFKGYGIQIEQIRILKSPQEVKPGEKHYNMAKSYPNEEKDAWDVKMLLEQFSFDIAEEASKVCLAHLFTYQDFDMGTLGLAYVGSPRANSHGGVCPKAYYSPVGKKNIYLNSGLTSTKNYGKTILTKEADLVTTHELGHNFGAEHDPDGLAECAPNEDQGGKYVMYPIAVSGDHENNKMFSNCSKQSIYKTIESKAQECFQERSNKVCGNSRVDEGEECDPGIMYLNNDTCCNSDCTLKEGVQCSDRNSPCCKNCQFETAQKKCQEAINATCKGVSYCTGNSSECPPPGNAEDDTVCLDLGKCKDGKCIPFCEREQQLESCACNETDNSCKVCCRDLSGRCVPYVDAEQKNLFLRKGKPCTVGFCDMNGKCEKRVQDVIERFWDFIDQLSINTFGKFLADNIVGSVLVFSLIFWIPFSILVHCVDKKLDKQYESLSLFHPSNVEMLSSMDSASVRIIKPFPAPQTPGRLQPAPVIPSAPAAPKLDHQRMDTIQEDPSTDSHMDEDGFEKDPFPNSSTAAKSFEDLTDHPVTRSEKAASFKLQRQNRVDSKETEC
Method: Inhibition of Soluble TNF-α Production (TACE Whole Blood Assay)
This assay is used in the invention to measure the potency (IC50s) of compounds for TACE.
Human mononuclear cells are isolated from anti-coagulated human blood using a one-step Ficoll-hypaque separation technique. (2) The mononuclear cells are washed three times in Hanks balanced salt solution (HBSS) with divalent cations and re-suspended to a density of 2×10^6/ml in HBSS containing 1% BSA.
180 μL of the cell suspension was aliquoted into flat bottom 96 well plates (Costar). Additions of compounds and LPS (100 ng/ml final concentration) gives a final volume of 200 μL. All conditions are performed in triplicate. After about a four hour incubation at about 37° C. in an humidified CO2 incubator, plates are removed and centrifuged (about 10 minutes at approximately 250×g) and the supernatants removed and assayed for TNF-α using the R&D ELISA Kit.

[5] = Table 2, recombinant collagenase-3 assay, read-out: MMP-13 (IC50 class)
[6] = Table 2, aggrecanase chondrocyte assay, read-out: Agg (aggrecanase IC50 class)

| IC50 [1] | IC50 [2, 5] | IC50 [3, 6] | IC50 [4] | IC50 ([2]; human recombinant enzyme, fluorogenic peptide substrate, read-out: Collagenase-3 IC50) | IC50 ([3]; primary porcine chondrocytes, IL-1 (5 ng/ml), read-out: Aggrecanase IC50) | SMILES |
| --- | --- | --- | --- | --- | --- | --- |
| > 1000 nM | < 10 nM | < 10 nM | < 10 µM |  |  | CNC(=O)N1CCN(S(=O)(=O)c2ccc(OCc3cc(F)ccc3C)cc2)[C@@H](C(=O)NO)[C@@H]1C |
| 200 to 1000 nM | < 10 nM | < 10 nM | 10 to 20 µM |  |  | C[C@@]1(O)CCCN(S(=O)(=O)c2ccc(OCc3ccc(Cl)cc3Cl)cc2)[C@H]1C(=O)NO [(2R,3R) 1-[4-(2,4-dichloro-benzyloxy)-benzenesulfonyl]-3-hydroxy-3-methyl-piperidine-2-carboxylic acidhydroxyamide] |
| 200 to 1000 nM | < 10 nM | 10 to 20 nM | 10 to 20 µM |  |  | C[C@@]1(O)CCCN(S(=O)(=O)c2ccc(OCc3ccc(F)cc3F)cc2)[C@H]1C(=O)NO [(2R,3R) 1-[4-(2,4-difluoro-benzyloxy)-benzenesulfonyl]-3-hydroxy-3-methyl-piperidine-2-carboxylic acidhydroxyamide] |
| 200 to 1000 nM | < 10 nM | < 10 nM | 10 to 20 µM |  |  | C[C@@]1(O)CCCN(S(=O)(=O)c2ccc(OCc3ccc(F)cc3Cl)cc2)[C@H]1C(=O)NO [(2R,3R) 1-[4-(2-chloro-4-fluoro-benzyloxy)-benzenesulfonyl]-3-hydroxy-3-methyl-piperidine-2-carboxylic acidhydroxyamide] |
|  | < 10 nM | < 10 nM | < 10 µM |  |  | C[C@@]1(O)CCCN(S(=O)(=O)c2ccc(OCc3ccccc3Cl)cc2)[C@H]1C(=O)NO [(2R,3R) 1-[4-(2-chloro-benzyloxy)-benzenesulfonyl]-3-hydroxy-3-methyl-piperidine-2-carboxylic acidhydroxyamide] |
| 20 to 200 nM | < 10 nM | < 10 nM | > 40 µM |  |  | C[C@@]1(O)CCCN(S(=O)(=O)c2ccc(OCc3ccc(Cl)cc3F)cc2)[C@H]1C(=O)NO [(2R,3R) 1-[4-(2-fluoro-4-chloro-benzyloxy)-benzenesulfonyl]-3-hydroxy-3-methyl-piperidine-2-carboxylic acidhydroxyamide] |
| 20 to 200 nM |  | 10 to 20 nM | 20 to 40 µM |  |  | C[C@@]1(O)CCCN(S(=O)(=O)c2ccc(OCc3ccccc3F)cc2)[C@H]1C(=O)NO [(2R,3R) 1-[4-(2-fluoro-benzyloxy)-benzenesulfonyl]-3-hydroxy-3-methyl-piperidine-2-carboxylic acidhydroxyamide] |
| > 1000 nM | < 10 nM | 10 to 20 nM | < 10 µM |  |  | Cc1c(F)cccc1COc1ccc(S(=O)(=O)N2CCC[C@@](C)(O)[C@@H]2C(=O)NO)cc1 [(2R,3R) 1-[4-(2-methyl-3-fluorobenzyloxy)-benzenesulfonyl]-3-hydroxy-3-methyl-piperidine-2-carboxylic acidhydroxyamide] |
|  | < 10 nM | 10 to 20 nM | < 10 µM |  |  | Cc1ccc(F)cc1COc1ccc(S(=O)(=O)N2CCC[C@@](C)(O)[C@@H]2C(=O)NO)cc1 [(2R,3R) 1-[4-(2-methyl-5-fluorobenzyloxy)-benzenesulfonyl]-3-hydroxy-3-methyl-piperidine-2-carboxylic acidhydroxyamide] |
| 200 to 1000 nM | < 10 nM | < 10 nM | < 10 µM |  |  | Cc1ccccc1COc1ccc(S(=O)(=O)N2CCC[C@@](C)(O)C2C(=O)NO)cc1 (stereo partly drawn) [(2R,3R) 1-[4-(2-methyl-benzyloxy)-benzenesulfonyl]-3-hydroxy-3-methyl-piperidine-2-carboxylic acidhydroxyamide] |
|  | < 10 nM | < 10 nM | < 10 µM |  |  | Cc1cc(F)ccc1COc1ccc(S(=O)(=O)N2CCC[C@@](C)(O)[C@@H]2C(=O)NO)cc1 [(2R,3R) 1-[4-(4-fluoro-2-methyl-benzyloxy)-benzenesulfonyl]-3-hydroxy-3-methyl-piperidine-2-carboxylic acidhydroxyamide] |
|  |  |  |  | 1 nM |  | CNC(=O)[C@H](Cc1ccc(OC)cc1)NC(=O)[C@@H](CC(=O)NO)CC(C)C [reference compound] |
|  |  |  |  |  | 53.5 nM | NS(=O)(=O)c1ccc(CCNC(=O)C(CC2CCCCC2)NC(=O)C(CCCc2ccccc2)CC(=O)NO)cc1 (stereo not drawn) [reference compound] |
